According to BindingDB's records for PubMed 33129590 (Key Laboratory of Technology of Drug Preparation (Zhengzhou …, 2021):

Key:
[1] = target: Prostaglandin G/H synthase 1 (Homo sapiens) (UniProt P23219); test: Inhibition of COX-1 (unknown origin)
[2] = target: Prostaglandin G/H synthase 2 (Homo sapiens) (UniProt P35354); test: Inhibition of COX-2 (unknown origin)
[3] = target: Poly [ADP-ribose] polymerase 1 (Homo sapiens, UniProt P09874); test: Displacement of [125I]KX1 from PARP1 in human OVCAR-8 cells incubated for 1 hr by wizard gamma counter analysis
Sequence of Poly [ADP-ribose] polymerase 1 (P09874 whole entry): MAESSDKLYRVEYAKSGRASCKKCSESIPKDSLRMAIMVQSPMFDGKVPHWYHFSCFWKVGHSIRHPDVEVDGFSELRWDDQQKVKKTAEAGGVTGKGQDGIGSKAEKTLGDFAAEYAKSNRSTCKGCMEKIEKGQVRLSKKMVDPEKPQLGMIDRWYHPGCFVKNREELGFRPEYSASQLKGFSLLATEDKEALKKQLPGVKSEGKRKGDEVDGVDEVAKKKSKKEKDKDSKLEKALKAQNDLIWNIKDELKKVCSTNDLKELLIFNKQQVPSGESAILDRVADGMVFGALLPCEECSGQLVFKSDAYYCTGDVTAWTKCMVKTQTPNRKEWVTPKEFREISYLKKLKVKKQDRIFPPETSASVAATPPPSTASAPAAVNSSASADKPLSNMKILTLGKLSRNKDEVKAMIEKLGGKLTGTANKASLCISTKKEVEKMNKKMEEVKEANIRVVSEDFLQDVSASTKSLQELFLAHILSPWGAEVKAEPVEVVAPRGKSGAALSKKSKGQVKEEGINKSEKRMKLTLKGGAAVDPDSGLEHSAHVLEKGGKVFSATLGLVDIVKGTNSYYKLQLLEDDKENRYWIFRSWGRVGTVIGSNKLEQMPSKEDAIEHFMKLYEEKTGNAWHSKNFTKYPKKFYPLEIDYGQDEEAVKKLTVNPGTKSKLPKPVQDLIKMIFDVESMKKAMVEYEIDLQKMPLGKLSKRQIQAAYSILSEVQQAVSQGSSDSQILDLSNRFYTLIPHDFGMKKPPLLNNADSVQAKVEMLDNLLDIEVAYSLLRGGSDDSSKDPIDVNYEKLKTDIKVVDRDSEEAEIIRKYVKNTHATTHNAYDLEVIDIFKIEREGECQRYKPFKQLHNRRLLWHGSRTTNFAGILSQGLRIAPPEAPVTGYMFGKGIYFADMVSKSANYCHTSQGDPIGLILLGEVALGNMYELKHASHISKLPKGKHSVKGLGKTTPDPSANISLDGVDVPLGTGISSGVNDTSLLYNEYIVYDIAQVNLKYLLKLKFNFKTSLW

Sequence of Prostaglandin G/H synthase 2 (Homo sapiens) (P35354 whole entry, looked up): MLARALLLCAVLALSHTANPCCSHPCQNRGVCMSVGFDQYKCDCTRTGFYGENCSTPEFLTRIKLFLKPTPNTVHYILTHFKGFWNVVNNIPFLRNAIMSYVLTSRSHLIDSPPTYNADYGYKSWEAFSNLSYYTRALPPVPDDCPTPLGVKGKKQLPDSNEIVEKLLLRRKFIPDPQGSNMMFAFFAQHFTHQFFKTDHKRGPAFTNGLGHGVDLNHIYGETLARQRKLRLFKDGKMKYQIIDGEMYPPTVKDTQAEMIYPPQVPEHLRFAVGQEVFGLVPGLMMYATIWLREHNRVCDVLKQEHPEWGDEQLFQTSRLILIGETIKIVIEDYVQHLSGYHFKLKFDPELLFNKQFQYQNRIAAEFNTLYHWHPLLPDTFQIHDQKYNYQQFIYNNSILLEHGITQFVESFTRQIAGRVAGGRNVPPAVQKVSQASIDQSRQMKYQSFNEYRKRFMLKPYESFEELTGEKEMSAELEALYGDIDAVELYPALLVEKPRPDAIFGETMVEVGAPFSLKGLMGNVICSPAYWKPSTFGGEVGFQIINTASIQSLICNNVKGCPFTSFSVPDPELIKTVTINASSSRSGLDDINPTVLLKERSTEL

| IC50 [1] | IC50 [2] | IC50 [3] | SMILES |
| --- | --- | --- | --- |
| 115000 nM | 1400 nM |  | COc1ccc(-c2nc(N3N=C(c4ccc(F)cc4)CCC3=O)n(C)c(=O)c2C#N)cc1 |
|  |  | 44 nM | COC1CC(NC(=O)c2cc(Cc3n[nH]c(=O)c4ccccc34)ccc2F)C1 (stereo not drawn) |
